Source: US6699834B1, “Method for treating cancer” (University of Maryland Biotechnology Institute, priority 1997, dated 2004)

Legend:
[1] = system: HIV-1; settings: for HIV in vitro Inhibition: inhibition of HIV-1 replication in vitro (HIV-1 strains and HIV-1 primary isolates)
From the text: To prepare HIV infected cells for the in vitro assay of hCG preparations and β-hCG peptides and derivatives, primary PBMCs, macrophages, and CD4^+ T cells isolated from peripheral blood and the H9 human T cell line, were acutely or chronically infected with 8 different HIV-1 strains: 4 cell line adapted viruses, namely the macrophage tropic Ba-L strain (Gartner et al., 1986, Science 233:215-219) and the CD4^+ T cell tropic MN, RF, and IIIB strains (10^5 TCID50/ml) (Popovic et al., 1984, Science […]; Gallo et al.; 1984, Science 224:500-503); 2 isolates, Ju1083 and G3, from Nigerian AIDS patients passed once in a CD4^+ T cell line (Sub-T1); and 2 primary (“clinical”) isolates from AIDS patients from Trinidad which were never passed in any cell line and were used at a titer of 7.5×10^4TCID50/ml. In all experiments; HIV1 (10^5 TCID50/ml) was added to the cells(10^6 cells/ml) for a 2 hour incubation after which the virus infected cells were washed with 10 ml phosphate buffered saline (PBS) three times to eliminate extra cellular virus. The test inhibitor, i.e. the hCG or β-hCG peptide preparation was then added and the cells were incubated with the test inhibiter for 9 to 10 days with serial sampling. Cultures were assayed for p24 antigen on days 3 to 10.
Peptides of the α- and β-subunits (0.05 to 50 nmoles/ml), native α chain preparation, and various crude preparations of the native hCG heterodimer (0.01 to 1,000 IU) and the native β-hCG subunit (100 to 1,000 μg) were tested for effects on HIV-1 replication in acutely infected cells-by measuring change in viral antigen levels in response to the above noted preparations (FIGS. 4A-D and Table 3).
The fractions were then tested for anti-HIV, anti-KS and pro-hematopoietic activities in vitro. To assay for inhibition of HIV-1 replication in vitro, the HIV-1 […] viral strain was used to infect PBMCs and PM-1 cells (derived from the HUT-78 T-cell lymphoma cell line) at 10^3 TCID50/ml as described in detail herein.

[2] = system: HIV-1 transgenic mice; assay: Survival, growth and weight of HIV-1 transgenic mouse pups; format: in vivo; settings: HIV-1 transgenic pups
Method: (§1) The HIV-1 transgenic mice used for this study contain 7.4 kb of foreign DNA, including 5.1 kb of the HIV-1 proviral genome deleted in the gag and pol genes and 2.3 kb of vector (Dickie et al., 1991, Virology 185:109-119). […] In addition, these mice develop severe hyperkeratotic skin lesions with marked expression of gp 120 and nef genes (Kopp et al., 1993, AIDS Res. Hum. Retroviruses 9:267-275; Vasli et al., 1994, AIDS Res. Hum. Retroviruses 10:1241-1250).
(§2) Finally, certain fractions were tested for their ability to increase survival, promote weight gain and reduce HIV-1 gene expression in HIV-1 transgenic mice as described herein.
HIV-I transgenic pups administered hCG and hCG-related preparations for the first 5 days after birth through the mothers milk were monitored for survival at 10 days after birth.

[3] = system: KS Y-1 and KS-SLK cells; assay: Kaposi's Sarcoma clonogenic assay in cultured cells; format: cell-based, human; settings: for inhibition of KS cell growth in clonogenic assays (in words): KS Y-1 and KS SLK; for KS in vitro: inhibition of Kaposi's Sarcoma cell growth in vitro in cultured cells
Method: Briefly, the KS Y-1 cells were obtained from mononuclear cells isolated from pleural effusion of an AIDS patient with KS in the lungs. After the depletion of T lymphocytes, monocytes/macrophages and fibroblasts using monoclonal antibodies against CD2, CD3, CD4, CD8, CD10 and CD14 membrane antigens and baby rabbit complement, the cells were cultured in the absence of exogenous growth factors to select for transformed cells. […] Clonogenic assays were performed by seeding the KS Y-1 or KS-SLK cells in methylcellulose (0.8%, v/v), incubating the cells for 10 days in the presence or absence of the hCC, β-hCG or β-hCG peptide preparations and then counting the number of well-formed colonies of triplicate wells formed after seeding with 5×10^4 cells.
To assay for activity against Kaposi's sarcoma cell growth in vitro, the clonogenic assay described herein was used with the KS Y-1 and KS-SLK cultured Kaposi's Sarcoma cell lines,.

[4] = system: lung cancer cells; assay: Clonogenic assay, lung cancer cells; format: cell-based; settings: compared to PBS alone
Method: The hCG preparations, fractions of the early pregnancy urine and hCG APL™ SUPERDEX™ 200 fractionations (described herein), and certain β-hCG peptides were tested on prostate, lung, breast, and kidney cancer cells in vitro, and on prostate tumors in nude mice. […] The preparations fractions and peptides were also assayed using a clonogenic assay in which cells were seeded in methylcellulose in the presence or absence of test substance and then colonies were counted after a certain period of time. Cells were also examined for apoptosis by confocal microscopy.

[5] = system: hematopoietic progenitor cells; assay: Hematopoietic progenitor clonogenic assays (CFU-GEMM, BFU-e, CFU-GM); format: cell-based, human; settings: for Pro-hematopoiesis in vitro Enhancement: relative increase of hematopoietic colony cell number, hCG preparations 200 IU/ml, subunits and peptides 100 μg/ml
Method: The effect of hCG preparations and peptides was assayed on hematopoietic progenitor cells in vitro: Hematopoietic progenitor cells (2×10^5 cell/ml) were isolated from normal bone marrow and cord blood and seeded in methylcellulose. […] The hCG preparations were administered at 200 IU/ml and the β- and α-subunits and peptides were administered at 100 μg/ml. The native commercial preparation of hCG (APL™, Wyeth Ayerst) was pre-tested for anti-HIV and anti-KS activities. Aggregates containing more than 50 cells after 10 days of culture were counted as colonies.

[6] = system: Kaposi's Sarcoma induced in mice; assay: Kaposi's Sarcoma tumors induced in mice by KS Y-1 cells; format: in vivo; settings: for KS in vivo: inhibition of Kaposi's Sarcoma induced in mice; for effect on KS tumors in mice (in words): mouse, in vivo
Method: The effects of the peptides on KS tumor cells were also evaluated in vivo in the KS mouse model. To induce KS tumors in the mice, 1×10^6/ml KS Y-1 cells in 50 μl PBS or saline were injected subcutaneously into immunodeficient mice (beige-XID-BNX mice). […] Methods for detection of apoptosis (from tissue biopsies) were used, as described in Lunardi-Iskandar et al.(1995, Nature 375:64-68). Briefly, the samples were stained in situ for the presence of cells with DNA fragmentation. Tissue slides from formalin-fixed tumors were treated with terminal deoxynucleotide transferase for extension of DNA ends (hydroxyl 3′) and incorporation of digoxigenin-11-dUTP according to the manufacturer's instructions (Oncor, Gaithersburg, Md.). Anti-digoxigenin antibody conjugated with the enzyme peroxidase allowed detection of apoptotic cells, which stain brown, whereas viable cells stain blue.
Certain fractions were tested for activity in reducing Kaposi's Sarcoma lesions in the Kaposi's Sarcoma mouse model as described herein. In this assay, starting one week after injection of the KS Y-1 cells to induce Kaposi's sarcoma formation, the mice were injected subcutaneously with 100 IU hCG. […] After one week of the week of treatment with the hCG fractions, the KS lesions were examined for cell apoptosis and regression as described herein.
Certain fractions of the APL™ hCG and early pregnancy urine were assayed for their ability to elicit apoptosis in Kaposi's Sarcoma lesions induced by injection of KS Y-1 cells in mice (n=3 mice for each treatment). The mice were administered 100 μl subcutaneously of the particular fraction each day for one week.

[7] = system: HIV RNA and protein expression; assay: HIV RNA and protein expression in HIV-1 transgenic mice; format: in vivo; settings: for inhibition of HIV RNA and protein expression: inhibition of HIV RNA and protein expression in HIV-1 transgenic mice; for HIV-1 gene / protein expression in transgenic mice (in words): pups dosed via mother's milk
From the text: as §1
Heterozygous transgenic mothers were treated with the hCG preparation subcutaneously twice weekly. Pups received hCG via the mother's milk.
Gene expression was assayed in total RNA extracted from the skin of Tg26 mice with RNAzol. One microgram of RNA was reverse transcribed into cDNA using random hexamer primers and […] reverse transcriptase (Life Technologies, MD) in a final volume of 30 μl. One tenth of the cDNA reactions were used for PCR amplification of various HIV gene sequences (env, tat, rev, nef and vif). In addition, glyceraldehyde 3-phosphate dehydrogenase (GAPHD) mRNA was amplified for each sample for normalization. Following 25 cycles of amplification, 10% of the PCR product was resolved by electrophoresis through 2% agarose gels and processed for Southern hybridization using FITC-labeled oligonucleotide probes complimentary to internal sequences of the amplicons. Detection was performed by chemiluminescence (Amersham) and relative mRNA levels determined by densitometry after normalization with GAPDH mRNA levels.
as §2

| Substance | inhibition of HIV-1 infection/replication in vitro (in words) [1] | HIV in vitro Inhibition [1] | weight gain / growth retardation and cachexia [2] | inhibition of KS cell growth in clonogenic assays (in words) [3] | KS in vitro [3] | colony formation [4] | promotion of hematopoiesis (in words) [5] | Pro-hematopoiesis in vitro Enhancement [5] | KS in vivo [6] | effect on KS tumors in mice (in words) [6] | inhibition of HIV RNA and protein expression [7] | HIV-1 gene / protein expression in transgenic mice (in words) [7] |
| --- | --- | --- | --- | --- | --- | --- | --- | --- | --- | --- | --- | --- |
| 3. 45-57: β-hCG amino acids 45-57 (SEQ ID NO:6) (LQGVLPALPQVVC) | inhibit HIV-1 replication in vitro | ++ (“++” represents greater than 40% effect) | higher weight gain than untreated mice | strongest anti-tumor effects | ++ (“++” represents greater than 40% effect) | inhibited colony formation | directly promoted | ++ (“++” represents greater than 40% effect) | ++ (“++” represents greater than 40% effect) | extensive cell death | ++ (“++” represents greater than 40% effect) | considerable inhibition |
| 6. 45-57::109-119: β-hCG 45-57 linked at the C-terminus to the N-terminus of 109-119 (SEQ ID NO:30) (LQGVLPALPQVVCTCDDPRFQDSS) | inhibit HIV-1 replication in vitro | ++ (“++” represents greater than 40% effect) | – | strongest anti-tumor effects | ++ (“++” represents greater than 40% effect) | inhibited colony formation | directly promoted | ++ (“++” represents greater than 40% effect) | ++ (“++” represents greater than 40% effect) | significant anti-KS activity | ++ (“++” represents greater than 40% effect) | – |
| 32. 48-56: β-hCG amino acids 48-56 (SEQ ID NO:35) (VLPALPQVV) | inhibited HIV-1 replication | + (“+” represents greater than 15% effect) | – | – | + (“+” represents greater than 15% effect) | – | pro-hematopoietic effect | + (“+” represents greater than 15% effect) | + (“+” represents greater than 15% effect) | some anti-KS activity | + (“+” represents greater than 15% effect) | elicited inhibition |
